Data published in ChEMBL document CHEMBL3351764, “Design, synthesis and biological activity of flavonoid derivatives as selective agonists for neuromedin U 2 receptor” (Bioorg Med Chem, 2014).
Active and inactive are the calls of the source.

Tests used:
[1] = biological target: D(1B) dopamine receptor (Homo sapiens) (UniProt P21918); assay: Agonist activity at human D5 receptor at 100 uM to 5 mM
[2] = biological target: Glucagon receptor (Homo sapiens) (UniProt P47871); assay: Agonist activity at human Glu receptor at 100 uM to 5 mM
[3] = biological target: Melanocortin receptor 4 (Homo sapiens) (UniProt P32245); assay: Agonist activity at human MC4 receptor at 100 uM to 5 mM
[4] = biological target: T1, Muscarinic acetylcholine receptor M1 (Homo sapiens) (UniProt P11229); assay: Agonist activity at human M1 receptor at 100 uM to 5 mM
T1 sequence (whole entry): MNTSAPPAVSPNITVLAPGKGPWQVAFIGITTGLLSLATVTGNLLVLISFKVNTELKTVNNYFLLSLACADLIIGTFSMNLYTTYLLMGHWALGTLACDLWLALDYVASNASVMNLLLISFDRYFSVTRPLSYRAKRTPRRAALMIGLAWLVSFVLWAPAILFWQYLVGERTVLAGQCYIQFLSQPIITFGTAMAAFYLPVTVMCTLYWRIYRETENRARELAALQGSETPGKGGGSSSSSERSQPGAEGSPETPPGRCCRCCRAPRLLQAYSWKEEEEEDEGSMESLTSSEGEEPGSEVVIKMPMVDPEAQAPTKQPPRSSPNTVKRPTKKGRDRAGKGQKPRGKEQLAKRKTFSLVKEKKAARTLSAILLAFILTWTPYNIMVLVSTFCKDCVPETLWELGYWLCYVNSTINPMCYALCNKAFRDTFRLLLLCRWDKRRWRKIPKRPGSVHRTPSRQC

[5] = biological target: Melanocyte-stimulating hormone receptor (Homo sapiens) (UniProt Q01726); assay: Agonist activity at human MC1 receptor at 100 uM to 5 mM
[6] = biological target: T2, Neuromedin-U receptor 1 (Homo sapiens) (UniProt Q9HB89); assay: Agonist activity at human NMU1 receptor at 100 uM to 5 mM
T2 sequence (whole entry): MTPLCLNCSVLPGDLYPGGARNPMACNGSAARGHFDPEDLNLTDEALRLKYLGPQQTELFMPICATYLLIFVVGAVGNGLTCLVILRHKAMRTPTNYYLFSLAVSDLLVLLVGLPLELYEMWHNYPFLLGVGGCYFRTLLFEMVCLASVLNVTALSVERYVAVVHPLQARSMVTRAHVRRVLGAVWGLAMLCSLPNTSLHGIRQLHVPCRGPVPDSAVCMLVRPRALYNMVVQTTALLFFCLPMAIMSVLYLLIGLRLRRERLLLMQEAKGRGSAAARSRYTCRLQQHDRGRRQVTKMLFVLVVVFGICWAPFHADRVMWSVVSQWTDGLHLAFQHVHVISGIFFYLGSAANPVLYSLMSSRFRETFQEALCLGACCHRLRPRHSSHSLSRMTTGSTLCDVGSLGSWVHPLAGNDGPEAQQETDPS

[7] = biological target: T3, 5-hydroxytryptamine receptor 2C (Homo sapiens) (UniProt P28335); assay: Agonist activity at human 5HT2C receptor at 100 uM to 5 mM
T3 sequence (whole entry): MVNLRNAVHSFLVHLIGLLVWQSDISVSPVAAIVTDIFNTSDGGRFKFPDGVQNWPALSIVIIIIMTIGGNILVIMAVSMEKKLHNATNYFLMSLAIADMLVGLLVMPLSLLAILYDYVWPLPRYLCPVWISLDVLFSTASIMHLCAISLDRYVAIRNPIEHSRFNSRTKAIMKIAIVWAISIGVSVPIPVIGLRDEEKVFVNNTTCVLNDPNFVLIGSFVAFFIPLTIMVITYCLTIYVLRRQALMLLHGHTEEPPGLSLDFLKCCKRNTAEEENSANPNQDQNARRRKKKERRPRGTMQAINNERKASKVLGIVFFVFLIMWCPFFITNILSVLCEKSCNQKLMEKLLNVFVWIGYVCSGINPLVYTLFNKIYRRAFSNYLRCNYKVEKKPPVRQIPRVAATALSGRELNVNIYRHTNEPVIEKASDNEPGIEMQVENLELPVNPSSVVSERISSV

[8] = biological target: T4, Adenosine receptor A3 (Homo sapiens) (UniProt P0DMS8); assay: Agonist activity at human A3 receptor at 100 uM to 5 mM
T4 sequence (whole entry): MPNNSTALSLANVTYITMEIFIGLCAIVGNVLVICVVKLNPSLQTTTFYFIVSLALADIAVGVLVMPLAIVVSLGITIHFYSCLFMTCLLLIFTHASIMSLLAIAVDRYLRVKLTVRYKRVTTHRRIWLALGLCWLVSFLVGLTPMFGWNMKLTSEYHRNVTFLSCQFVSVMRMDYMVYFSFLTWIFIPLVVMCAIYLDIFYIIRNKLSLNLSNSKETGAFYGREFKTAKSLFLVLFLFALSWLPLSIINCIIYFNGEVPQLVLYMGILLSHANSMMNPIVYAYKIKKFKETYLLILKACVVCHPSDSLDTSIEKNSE

[9] = biological target: Melanocortin receptor 4 (Mus musculus) (UniProt P56450); assay: Agonist activity at mouse MC4 receptor at 100 uM to 5 mM
[10] = biological target: T5, Orexin receptor type 2 (Homo sapiens) (UniProt O43614); assay: Agonist activity at human orexin 2 receptor at 100 uM to 5 mM
T5 sequence (whole entry): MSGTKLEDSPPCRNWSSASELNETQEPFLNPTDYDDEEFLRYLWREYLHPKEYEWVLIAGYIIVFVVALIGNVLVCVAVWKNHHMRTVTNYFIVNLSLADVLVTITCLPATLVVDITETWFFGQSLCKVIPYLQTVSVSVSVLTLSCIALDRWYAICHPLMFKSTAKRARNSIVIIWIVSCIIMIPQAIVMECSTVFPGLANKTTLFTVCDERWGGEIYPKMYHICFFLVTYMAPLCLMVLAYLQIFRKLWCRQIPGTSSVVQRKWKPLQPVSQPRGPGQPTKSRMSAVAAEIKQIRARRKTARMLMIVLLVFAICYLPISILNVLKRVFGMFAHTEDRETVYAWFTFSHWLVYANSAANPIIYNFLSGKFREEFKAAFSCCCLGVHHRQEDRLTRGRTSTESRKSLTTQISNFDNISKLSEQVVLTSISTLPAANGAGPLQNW

[11] = biological target: Adenosine receptor A2a (Homo sapiens) (UniProt P29274); assay: Agonist activity at human A2a receptor at 100 uM to 5 mM

Measured: Activity

Chain of D(1B) dopamine receptor (Homo sapiens) (P21918 whole entry): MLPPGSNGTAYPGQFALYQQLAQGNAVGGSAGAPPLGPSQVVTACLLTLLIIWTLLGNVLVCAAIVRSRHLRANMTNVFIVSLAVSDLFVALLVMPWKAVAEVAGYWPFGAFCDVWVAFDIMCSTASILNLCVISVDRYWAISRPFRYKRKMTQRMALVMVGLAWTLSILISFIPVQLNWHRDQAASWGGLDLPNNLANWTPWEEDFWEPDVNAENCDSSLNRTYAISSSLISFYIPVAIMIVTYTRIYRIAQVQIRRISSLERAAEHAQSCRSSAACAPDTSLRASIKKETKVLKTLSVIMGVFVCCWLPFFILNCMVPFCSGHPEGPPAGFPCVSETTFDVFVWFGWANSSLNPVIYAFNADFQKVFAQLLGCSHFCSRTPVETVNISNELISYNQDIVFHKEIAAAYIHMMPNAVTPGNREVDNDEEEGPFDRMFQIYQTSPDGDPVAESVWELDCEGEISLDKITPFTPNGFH
Chain of Melanocortin receptor 4 (Homo sapiens) (P32245 whole entry): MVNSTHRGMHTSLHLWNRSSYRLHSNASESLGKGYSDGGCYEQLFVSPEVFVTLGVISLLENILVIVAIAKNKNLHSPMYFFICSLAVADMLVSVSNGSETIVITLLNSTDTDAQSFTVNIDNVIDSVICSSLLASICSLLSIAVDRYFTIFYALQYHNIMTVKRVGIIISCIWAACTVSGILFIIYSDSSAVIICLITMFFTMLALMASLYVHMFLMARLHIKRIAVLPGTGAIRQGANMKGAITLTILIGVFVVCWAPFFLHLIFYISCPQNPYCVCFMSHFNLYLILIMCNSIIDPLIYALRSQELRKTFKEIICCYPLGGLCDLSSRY
Chain of Melanocyte-stimulating hormone receptor (Homo sapiens) (Q01726 whole entry, looked up): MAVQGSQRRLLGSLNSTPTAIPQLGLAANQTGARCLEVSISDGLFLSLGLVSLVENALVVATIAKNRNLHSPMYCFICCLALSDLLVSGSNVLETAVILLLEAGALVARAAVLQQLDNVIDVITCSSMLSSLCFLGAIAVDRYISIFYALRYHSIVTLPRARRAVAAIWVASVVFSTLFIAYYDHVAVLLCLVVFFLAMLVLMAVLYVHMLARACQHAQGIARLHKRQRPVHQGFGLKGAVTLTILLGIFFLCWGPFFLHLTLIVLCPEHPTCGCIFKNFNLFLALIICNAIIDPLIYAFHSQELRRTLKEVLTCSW
Chain of Melanocortin receptor 4 (Mus musculus) (P56450 whole entry): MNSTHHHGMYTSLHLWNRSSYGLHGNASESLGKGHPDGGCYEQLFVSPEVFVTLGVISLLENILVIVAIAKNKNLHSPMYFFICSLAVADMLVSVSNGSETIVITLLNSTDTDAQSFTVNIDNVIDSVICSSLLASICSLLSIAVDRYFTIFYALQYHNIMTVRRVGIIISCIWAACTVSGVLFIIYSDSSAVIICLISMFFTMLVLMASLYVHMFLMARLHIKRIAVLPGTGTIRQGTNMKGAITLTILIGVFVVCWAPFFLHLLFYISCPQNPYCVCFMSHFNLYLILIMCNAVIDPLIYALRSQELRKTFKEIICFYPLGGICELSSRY
Chain of Glucagon receptor (Homo sapiens) (P47871 whole entry): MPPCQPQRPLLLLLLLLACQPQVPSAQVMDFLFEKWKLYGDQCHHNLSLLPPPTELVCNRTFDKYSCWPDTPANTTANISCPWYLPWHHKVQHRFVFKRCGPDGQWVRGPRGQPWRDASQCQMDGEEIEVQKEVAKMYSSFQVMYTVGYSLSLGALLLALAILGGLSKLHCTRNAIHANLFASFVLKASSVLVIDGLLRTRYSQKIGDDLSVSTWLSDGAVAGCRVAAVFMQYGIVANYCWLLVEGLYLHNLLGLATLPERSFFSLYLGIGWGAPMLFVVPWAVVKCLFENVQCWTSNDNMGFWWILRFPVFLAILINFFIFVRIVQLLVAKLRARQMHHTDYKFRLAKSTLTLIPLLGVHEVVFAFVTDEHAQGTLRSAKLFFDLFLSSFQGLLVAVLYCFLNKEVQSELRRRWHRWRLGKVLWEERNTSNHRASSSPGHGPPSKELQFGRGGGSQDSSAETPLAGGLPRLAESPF
Chain of Adenosine receptor A2a (Homo sapiens) (P29274 whole entry): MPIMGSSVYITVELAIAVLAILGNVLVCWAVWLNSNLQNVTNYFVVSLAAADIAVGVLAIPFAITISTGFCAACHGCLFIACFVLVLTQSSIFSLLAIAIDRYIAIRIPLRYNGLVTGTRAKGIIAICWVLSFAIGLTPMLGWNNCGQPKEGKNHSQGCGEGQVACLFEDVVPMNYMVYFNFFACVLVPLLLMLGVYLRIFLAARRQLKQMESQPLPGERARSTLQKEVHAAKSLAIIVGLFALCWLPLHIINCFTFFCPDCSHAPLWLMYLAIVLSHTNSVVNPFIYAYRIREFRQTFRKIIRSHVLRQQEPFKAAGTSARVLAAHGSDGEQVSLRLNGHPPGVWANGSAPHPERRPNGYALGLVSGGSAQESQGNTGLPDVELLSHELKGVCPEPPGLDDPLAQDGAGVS

CCN(CC)c1ccc(-c2oc3ccccc3c(=O)c2O)cc1
inactive: all assays above

O=c1c(O)c(-c2cccc(Br)c2)oc2ccccc12
inactive: all assays above

O=c1c(O)c(-c2c(F)cccc2Cl)oc2ccccc12
inactive: all assays above

COc1cccc(-c2oc3ccccc3c(=O)c2O)c1
inactive: all assays above

O=c1c(O)c(-c2ccc(Br)cc2F)oc2ccccc12
inactive: all assays above

O=c1c(O)c(-c2ccc(Cl)cc2Cl)oc2ccccc12
inactive: all assays above

O=c1c(O)c(-c2c(F)ccc(F)c2Cl)oc2ccccc12
inactive: all assays above

COc1ccc(C2C=Cc3ccccc3O2)cc1 (racemic)
inactive: all assays above
